Measurements as given in US12661360B2 (Tulex Pharmaceuticals Inc., priority 2023, dated 2026).
In brackets after ≈: the same amount, converted by molar mass.

Assay: Solubilities of lamotrigine in various non-aqueous solvents and purified water
Type: physicochemical

solubility (organic solvent or mixture, solvent Glycerin): 20.2 mg/mL (≈ 79 mM)
solubility (organic solvent or mixture, solvent PEG 400): > 30 mg/mL
solubility (organic solvent or mixture, solvent Polypropylene glycol 400): 10 to 20 mg/mL (≈ 39 to 78.1 mM)
solubility (organic solvent or mixture, solvent Propylene Glycol): 40.2 mg/mL (≈ 157 mM)
solubility (solvent Purified water): 0.31 mg/mL (≈ 1.21 mM)
Compound: Nc1nnc(-c2cccc(Cl)c2Cl)c(N)n1 [lamotrigine, 3,5-diamino-6-(2,3-dichlorophenyl)-1,2,4-triazine]
